From article PMC5613243 (Chemical Science, 2017)

Molecular target: T1, XiaK (Streptomyces sp. SCSIO 02999, UniProt I3VFC1)
T1 sequence (I3VFC1 1-596): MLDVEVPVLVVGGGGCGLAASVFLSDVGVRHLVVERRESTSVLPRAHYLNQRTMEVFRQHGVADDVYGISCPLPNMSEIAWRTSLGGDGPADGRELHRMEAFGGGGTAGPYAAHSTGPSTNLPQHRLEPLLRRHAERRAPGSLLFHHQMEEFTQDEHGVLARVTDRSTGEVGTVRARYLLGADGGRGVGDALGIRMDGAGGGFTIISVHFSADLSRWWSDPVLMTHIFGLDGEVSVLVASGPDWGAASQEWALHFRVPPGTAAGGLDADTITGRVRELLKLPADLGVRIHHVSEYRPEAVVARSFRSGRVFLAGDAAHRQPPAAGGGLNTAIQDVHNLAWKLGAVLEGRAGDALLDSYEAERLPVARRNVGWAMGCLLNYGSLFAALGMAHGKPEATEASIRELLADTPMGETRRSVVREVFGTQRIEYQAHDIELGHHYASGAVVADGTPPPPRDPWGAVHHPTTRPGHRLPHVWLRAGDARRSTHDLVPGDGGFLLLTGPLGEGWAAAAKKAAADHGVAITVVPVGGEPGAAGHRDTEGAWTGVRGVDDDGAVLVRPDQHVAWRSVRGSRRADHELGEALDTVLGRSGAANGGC
Assay: release of bound flavin by heat denaturation of purified protein
Type: binding
Settings: noncovalently bound, co-purified cofactor

With `Cc1cc2nc3c(=O)[nH]c(=O)nc-3n(C[C@H](O)[C@H](O)[C@H](O)COP(=O)(O)OP(=O)(O)OC[C@H]3O[C@@H](n4cnc5c(N)ncnc54)[C@H](O)[C@@H]3O)c2cc1C` [FAD] the “release of bound flavin by heat denaturation of purified protein” value was “released the noncovalently-bound flavin adenosine dinucleotide (FAD) cofactor upon heat denaturation”.
